From publication PMC3486420, “In Vitro and In Vivo Characterizations of Chiglitazar, a Newly Identified PPAR Pan-Agonist” (PPAR Research, 2012)

Assays:
PPARγ [1] = target: T1, PPARγ (Homo sapiens, UniProt P37231); assay: PPARγ transactivation reporter gene assay in SMMC-7721 cells; type: cell-based; settings: SMMC-7721 cells
T1 construct: expressed in transfected cells; host or cells: SMMC-7721 or U2OS
T1 sequence (P37231 1-505): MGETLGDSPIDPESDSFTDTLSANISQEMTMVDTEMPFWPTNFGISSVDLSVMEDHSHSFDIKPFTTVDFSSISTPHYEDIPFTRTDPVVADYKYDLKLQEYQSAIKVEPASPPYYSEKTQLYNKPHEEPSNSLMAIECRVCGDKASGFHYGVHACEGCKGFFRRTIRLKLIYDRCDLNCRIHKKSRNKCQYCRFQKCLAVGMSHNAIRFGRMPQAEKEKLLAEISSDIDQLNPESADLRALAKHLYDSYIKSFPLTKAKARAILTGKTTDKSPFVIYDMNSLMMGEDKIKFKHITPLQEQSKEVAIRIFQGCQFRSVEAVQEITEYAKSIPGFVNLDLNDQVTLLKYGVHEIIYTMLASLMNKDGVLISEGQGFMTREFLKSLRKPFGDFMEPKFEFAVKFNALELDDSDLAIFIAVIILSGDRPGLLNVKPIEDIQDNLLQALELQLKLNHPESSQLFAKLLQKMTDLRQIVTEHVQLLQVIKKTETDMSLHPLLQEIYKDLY
T1 sequence (P19793 1-462 partner): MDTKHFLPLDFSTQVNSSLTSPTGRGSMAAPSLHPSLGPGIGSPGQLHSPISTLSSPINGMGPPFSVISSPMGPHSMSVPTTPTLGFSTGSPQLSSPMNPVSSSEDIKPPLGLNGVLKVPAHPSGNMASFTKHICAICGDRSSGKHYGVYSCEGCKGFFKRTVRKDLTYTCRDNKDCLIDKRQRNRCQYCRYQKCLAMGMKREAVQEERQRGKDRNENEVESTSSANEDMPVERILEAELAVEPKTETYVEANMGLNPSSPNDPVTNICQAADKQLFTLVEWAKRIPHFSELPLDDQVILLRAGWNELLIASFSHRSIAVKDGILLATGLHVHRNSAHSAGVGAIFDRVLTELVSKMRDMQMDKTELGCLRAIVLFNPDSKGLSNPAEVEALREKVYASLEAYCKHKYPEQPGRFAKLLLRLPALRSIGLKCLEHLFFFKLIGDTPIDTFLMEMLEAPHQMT

PPARδ [2] = target: T2, PPARδ (Homo sapiens, UniProt Q03181); assay: PPARδ transactivation reporter gene assay in SMMC-7721 cells; type: cell-based; settings: SMMC-7721 cells
T2 construct: expressed in transfected cells; host or cells: SMMC-7721 or U2OS
T2 sequence (Q03181 1-441): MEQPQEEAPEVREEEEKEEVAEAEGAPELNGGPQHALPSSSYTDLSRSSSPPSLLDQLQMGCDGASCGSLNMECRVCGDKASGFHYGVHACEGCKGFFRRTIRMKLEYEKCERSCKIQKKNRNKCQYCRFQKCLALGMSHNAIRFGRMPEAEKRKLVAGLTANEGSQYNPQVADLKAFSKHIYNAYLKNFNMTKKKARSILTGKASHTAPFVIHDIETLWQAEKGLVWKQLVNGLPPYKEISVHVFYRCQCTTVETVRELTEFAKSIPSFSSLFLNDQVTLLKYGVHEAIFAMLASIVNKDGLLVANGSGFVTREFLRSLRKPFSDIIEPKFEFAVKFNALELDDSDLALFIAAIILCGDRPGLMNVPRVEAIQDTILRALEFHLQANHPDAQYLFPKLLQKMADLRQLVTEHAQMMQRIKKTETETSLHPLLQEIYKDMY
T2 sequence (P19793 1-462 partner): T1 sequence (P19793 1-462 partner)

PPARγ [3] = target: T1, PPARγ; assay: PPARγ transactivation reporter gene assay in U2OS cells; type: cell-based
PPARδ [4] = target: T2, PPARδ; assay: PPARδ transactivation reporter gene assay in U2OS cells; type: cell-based; settings: U2OS cells
Wistar rats = assay: Influence in heart weight of Wistar rats, 6-month oral dosing; type: in vivo, rat; settings: for Increase in heart weight: 135 mg kg^−1 (~900 mg/m^2) oral daily, 6 months
Description: Male and female Wistar rats of 6-week old were randomly divided into 4 groups, 5 for each male and female per group. Animals in different groups were orally treated daily with chiglitazar suspended in water at the doses of 15, 45, and 135 mg kg^−1, or vehicle (water), for 6 months. 24 h after the last treatment, animals were sacrificed and the weight of heart from individual animals was weighed.
Figure 5 Influence on heart weight and tissue distribution of chiglitazar in rats. (a) Wistar rats were orally administered daily with chiglitazar at the dose of 15, 45 and 135 mg kg^−1 for 6 months. 24 h after the last dosing, animals were sacrificed and the heart weight was evaluated. *P < 0.05 compared with control; n = 5 per group. (b) Male Wistar rats were orally administered with a single dose of ^3H-chiglitazar at 12.5 mg kg^−1 (radiation dose 31.7 MBq kg^−1). Rats were sacrificed at 1.5, 4, 8, and 24 h after treatment (n = 5 per time point), and various tissues/organs as indicated were taken for radioactivity measurement. The accumulated area under curves through 0 to 24 h (AUC0–24) was calculated based on individual tissue distribution measured at each time point. (c) The time course distribution of chiglitazar in different tissues at individual time point (1.5, 4, 8, 24 h). Data are expressed as mean ± SE.

Wistar obese rats = system: Wistar obese rats; set-up: method as in PMID 16751799; settings: Wistar obese rats treated for 9–40 days ref 18; cited from earlier work
[5] = max response compared with Ros at 1 μM
[6] = 24 h treatment, luciferase reporter, hRXR cotransfected, ia: inactive at 10 μM, read-out: PPARδ EC50
[7] = max response compared with 2-Bro at 10 μM

O=C(c1ccc(F)cc1)c1ccccc1NC(Cc1ccc(OCCn2c3ccccc3c3ccccc32)cc1)C(=O)O (centres unmarked) [Chi, 2-[(2-(4-fluorobenzoyl)phenyl)amino]-3-[4-(2-carbazolylethoxy)-phenyl]-propionic acid]
EC50 (PPARγ [1]; 24 h treatment, luciferase reporter, hRXR cotransfected, ia: inactive at 10 μM, read-out: PPARγ EC50): 90 ± 20 nM | PPARγ % Max (PPARγ [1]; [5]): 105% | EC50 (PPARδ [2]; [6]): 1700 ± 400 nM | PPARδ % Max (PPARδ [2]; [7]): 123% | EC50 (PPARγ [3]; 24 h treatment, luciferase reporter, hRXR cotransfected, ia: inactive at 10 μM): 80 ± 20 nM | PPARγ % Max (PPARγ [3]; [5]): 117% | EC50 (PPARδ [4]; [6]): 1500 ± 200 nM | PPARδ % Max (PPARδ [4]; [7]): 244% | No-effect dose on heart weight (45 mg kg^−1) relative to optimal efficacy dose (10 mg kg^−1) (Wistar rats; Wistar rats): about 4.5 times | Microscopical examination of weight-increased hearts (Wistar rats; Wistar rats, 135 mg kg^−1, 6 months (data not shown)): minimal to mild myocardial hypertrophy | Heart weight (Wistar rats; Wistar rats, oral daily 6 months, doses as high as 45 mg kg^−1 (~300 mg/m^2)): did not increase | Increase in heart weight (Wistar rats; female Wistar rats): about 20% | Increase in heart weight (Wistar rats; male Wistar rats): ~12% | Optimal efficacy dose (Wistar obese rats): 10 mg/kg
